Measured values from patent publication US20170037125A1, “COMBINATION OF A PD-1 ANTAGONIST AND AN IDO1 INHIBITOR FOR TREATING CANCER” (INCYTE CORPORATION, priority 2014, published 2017).
Marks after values point to notes of the source that are not given here.

Assays:
[1] = molecular target: human indoleamine 2,3-dioxygenasae (IDO) (Homo sapiens, UniProt P14902); conditions: human IDO enzyme assay; see U.S. Pat. No. 8,088,803; cited from earlier work
[2] = tested on: selected advanced or metastatic solid tumors; assay: Phase 1 dose-escalation clinical study of INCB024360 in combination with MK-3475: tumor response (modified RECIST v1.1); assay type: in vivo, human; conditions: for CR, patients / NE (not evaluable), patients / PD, patients / PR, patients: preliminary
Description: Phase 1 of the study is a dose-escalation phase and Phase 2 is randomized, double-blind, and placebo-controlled. Phase 1 of the study is conducted in subjects with selected advanced or metastatic solid tumors. Phase 2 of the study is conducted in subjects with advanced NSCLC, e.g., Stage IIIB, IV, or recurrent NSCLC. […] The Phase 1 dose-escalation phase includes cohorts of subjects treated with INCB024360 twice daily (BID) at initial doses of 25 mg BID, 50 mg BID, and 100 mg BID in combination with MK-3475 at 2 mg/kg every 3 weeks. One treatment cycle consists of 21 days. A minimum of 3 subjects are enrolled and treated in each cohort, and all 3 subjects are observed for a minimum of 42 days (6 weeks) before the subsequent cohort begins enrollment. […] The study subject cohorts are summarized as follows: For treatment, INCB024360 is self-administered orally BID and continued BID during the 21-day cycle for an every-3-week dose schedule of MK-3475. The MTD of INCB024360 (or PAD) defined during Phase 1 is used for Phase 2. All BID doses are taken morning and evening, approximately 12 hours apart without respect to food. If a dose is missed by more than 4 hours, that dose is skipped and is resumed at the scheduled time. […] Study subject participation averages about 6 months. The Study Schedule and Procedures for the Phase 1/2 study are as follows: […] Liver function test monitoring occurs weekly during the first 6 weeks of study treatment during Phase 1 and then is tested every 3 weeks thereafter and in Phase 2 for subjects who remain on study treatment. Assessment of tumor size (by magnetic resonance imaging or computed tomography scan) is performed at screening or baseline (before beginning therapy), every 9 weeks for 18 months, and then every 12 weeks thereafter until disease progression. Disease progression is defined as progression confirmed by a second, consecutive assessment at least 4 weeks apart with the option for continuing treatment while awaiting radiologic confirmation of progression where feasible, and where subjects are clinically stable, defined as the following: absence of signs and symptoms (including worsening of laboratory values) indicating disease progression, no decline in ECOG performance status, absence of rapid progression of disease, and absence of progressive tumors at critical anatomical sites (e.g., cord compression) requiring urgent alternative medical intervention. […] In accordance with the protocol, INCB024360 was administered in combination with MK-3475. MK-3475 was intravenously administered at a dose of 2 mg/kg as described.

[3] = Phase 1 dose-escalation clinical study of INCB024360 in combination with MK-3475: adverse events; assay type: in vivo
Description: This Example describes an ongoing Phase 1/2 clinical study to evaluate the safety, tolerability and efficacy of the inventive combination of MK-3475 and INCB024360 in subjects presenting with various solid tumors and advanced non-small cell lung cancer (NSCLC). Phase 1 of the study is a dose-escalation phase and Phase 2 is randomized, double-blind, and placebo-controlled. Phase 1 of the study is conducted in subjects with selected advanced or metastatic solid tumors. Phase 2 of the study is conducted in subjects with advanced NSCLC, e.g., Stage IIIB, IV, or recurrent NSCLC. The dose-escalation phase (Phase 1) is open-label and is designed to identify the maximum tolerated dose (MTD) or pharmacologically acceptable doses (PAD) of INCB024360 in combination with MK-3475 in subjects with Stage IIIB, IV, or recurrent NSCLC, melanoma, transitional cell carcinoma of the genitourinary (GU) tract, renal cell cancer, triple negative breast cancer, adenocarcinoma of the endometrium or squamous cell carcinoma of the head and neck who have disease progression on at least 1 line of therapy for advanced or metastatic cancer.
The Phase 1 dose-escalation phase includes cohorts of subjects treated with INCB024360 twice daily (BID) at initial doses of 25 mg BID, 50 mg BID, and 100 mg BID in combination with MK-3475 at 2 mg/kg every 3 weeks. One treatment cycle consists of 21 days. A minimum of 3 subjects are enrolled and treated in each cohort, and all 3 subjects are observed for a minimum of 42 days (6 weeks) before the subsequent cohort begins enrollment. Additional subjects are enrolled in a cohort to achieve the minimum of 3 evaluable subjects if dropouts or dose interruptions or reductions occur that result in a subject being nonevaluable for dose limiting toxicities (DLTs). When the MTD or PAD is reached, additional subjects are enrolled for a total of 9 subjects, but the additional subjects are treated with MK-3475 at 200 mg every 3 weeks and the MTD or PAD of INCB024360 to further evaluate safety and confirm it as the recommended Phase 2 dose (RP2D). The study subject cohorts are summarized as follows:
For treatment, INCB024360 is self-administered orally BID and continued BID during the 21-day cycle for an every-3-week dose schedule of MK-3475. The MTD of INCB024360 (or PAD) defined during Phase 1 is used for Phase 2. All BID doses are taken morning and evening, approximately 12 hours apart without respect to food. If a dose is missed by more than 4 hours, that dose is skipped and is resumed at the scheduled time. MK-3475 is administered at 2 mg/kg or 200 mg intravenously (IV) over a 30-minute period on Day 1 of an every-3-week cycle, with no intrasubject dose escalation. Study subject participation averages about 6 months.
Primary endpoints of the Phase 1 study are as follows: Safety and tolerability are assessed by monitoring frequency, duration and severity of AEs, through physical examinations, by evaluating changes in vital signs and electrocardiograms, and through clinical laboratory blood and urine sample evaluations. Primary endpoints of the Phase 2 study are as follows: Progression-free survival, defined as the time from randomization until the earliest date of disease progression, as determined by investigator assessment of objective radiographic disease assessments per modified RECIST v1.1, or death due to any cause, if occurring sooner than progression. Imaging is archived for possible retrospective central confirmation of disease progression and response.
Table 4 below presents preliminary data of adverse events (AEs), including immune-related AEs, reported in the described study.

[4] = INCB024360 25 mg BID (n = 4) with MK-3475 2 mg/kg IV
[5] = INCB024360 50 mg BID (n = 4) with MK-3475 2 mg/kg IV
[6] = subjects evaluable for response, both cohorts, with MK-3475
[7] = Grade 3 or 4, 25 mg BID (n = 4)
[8] = Grade 3 or 4, 50 mg BID (n = 8)

human indoleamine 2,3-dioxygenasae (IDO), sequence (P14902 whole entry): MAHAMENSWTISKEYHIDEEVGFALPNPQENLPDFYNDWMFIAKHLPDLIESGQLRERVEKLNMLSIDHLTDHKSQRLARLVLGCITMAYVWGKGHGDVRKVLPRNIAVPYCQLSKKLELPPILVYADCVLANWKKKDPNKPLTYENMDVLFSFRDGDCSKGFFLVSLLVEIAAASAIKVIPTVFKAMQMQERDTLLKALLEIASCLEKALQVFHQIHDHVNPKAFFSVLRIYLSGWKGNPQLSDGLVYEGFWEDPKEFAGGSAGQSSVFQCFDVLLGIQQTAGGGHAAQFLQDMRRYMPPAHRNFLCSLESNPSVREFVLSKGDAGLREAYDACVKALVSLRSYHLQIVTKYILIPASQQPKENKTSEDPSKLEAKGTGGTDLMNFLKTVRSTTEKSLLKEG

Compound: NS(=O)(=O)NCCNc1nonc1C(=NO)Nc1ccc(F)c(C(F)(F)F)c1 [Compound 3, 4-({2-[(aminosulfonyl)amino]ethyl}amino)-N-[4-fluoro-3-(trifluoromethyl)phenyl]-N′-hydroxy-1,2,5-oxadiazole-3-carboximidamide]
- IC50 [1]: < 0.1 µM

Compound: NS(=O)(=O)NCCNc1nonc1C(=NO)Nc1ccc(F)c(Br)c1 [Compound 1, 4-({2-[(aminosulfonyl)amino]ethyl}amino)-N-(3-bromo-4-fluorophenyl)-N′-hydroxy-1,2,5-oxadiazole-3-carboximidamide]
- response of a subject having melanoma (MEL) ([2]; 25 mg BID Cohort, stable, with MK-3475 2 mg/kg IV): stable disease (SD)
- response of a subject having transitional cell carcinoma (TCC) in bladder ([2]; 25 mg BID Cohort, with MK-3475 2 mg/kg IV): partial response (PR)
- response of a subject with melanoma (MEL) ([2]; 50 mg BID Cohort, first melanoma subject, with MK-3475 2 mg/kg IV): complete response (CR)
- response of a subject with melanoma (MEL) ([2]; 50 mg BID cohort, further melanoma subject, with MK-3475 2 mg/kg IV): partial response (PR)
- total best overall response (per modified RECIST v1.1) ([2]; 25 and 50 mg BID cohorts pooled, only subjects evaluable for response (5/7), with MK-3475): 71%
- disease control rate ([2]; 25 and 50 mg BID cohorts pooled, only subjects evaluable for response (7/7), with MK-3475): 100%
- CR, patients [2, 4]: 0 n (%)
- NE (not evaluable), patients [2, 4]: 0 n (%)
- PD, patients [2, 4]: 0 n (%)
- PR, patients [2, 4]: 2 (50%) n (%)
- CR, patients [2, 5]: 1 (33%) n (%)
- NE (not evaluable), patients [2, 5]: 1** n (%)
- PD, patients [2, 5]: 0 n (%)
- PR, patients [2, 5]: 2 (67%) n (%)
- Disease Control Rate (DCR) [2, 6]: 7/7
- Objective response rate (ORR) [2, 6]: 4/7
- Grade 3 rash related to dose limiting toxicity (DLT) ([3]; 50 mg BID cohort): one
- Cough (AE) ([3]; All Grades, 25 mg BID (n = 4)): 2 n (%)
- DVT (IJ) (AE; Deep Vein Thrombosis, Internal Jugular) ([3]; All Grades, 25 mg BID (n = 4)): 1 n (%)
- Diarrhea (AE) ([3]; All Grades, 25 mg BID (n = 4)): 2 n (%)
- Dyspnea (AE) ([3]; All Grades, 25 mg BID (n = 4)): 1 n (%)
- Fall (AE) ([3]; All Grades, 25 mg BID (n = 4)): 0 n (%)
- Fatigue (AE) ([3]; All Grades, 25 mg BID (n = 4)): 0 n (%)
- Headache (AE) ([3]; All Grades, 25 mg BID (n = 4)): 1 n (%)
- Mild Infusion Reaction (AE) ([3]; All Grades, 25 mg BID (n = 4)): 0 n (%)
- Nausea (AE) ([3]; All Grades, 25 mg BID (n = 4)): 2 n (%)
- Pruritis (AE) ([3]; All Grades, 25 mg BID (n = 4)): 1 n (%)
- Rash (AE) ([3]; All Grades, 25 mg BID (n = 4)): 0 n (%)
- Cough (AE) ([3]; All Grades, 50 mg BID (n = 8)): 0 n (%)
- DVT (IJ) (AE; Deep Vein Thrombosis, Internal Jugular) ([3]; All Grades, 50 mg BID (n = 8)): 0 n (%)
- Diarrhea (AE) ([3]; All Grades, 50 mg BID (n = 8)): 0 n (%)
- Dyspnea (AE) ([3]; All Grades, 50 mg BID (n = 8)): 0 n (%)
- Fall (AE) ([3]; All Grades, 50 mg BID (n = 8)): 1 n (%)
- Fatigue (AE) ([3]; All Grades, 50 mg BID (n = 8)): 1 n (%)
- Headache (AE) ([3]; All Grades, 50 mg BID (n = 8)): 0 n (%)
- Mild Infusion Reaction (AE) ([3]; All Grades, 50 mg BID (n = 8)): 1 n (%)
- Nausea (AE) ([3]; All Grades, 50 mg BID (n = 8)): 1 n (%)
- Pruritis (AE) ([3]; All Grades, 50 mg BID (n = 8)): 0 n (%)
- Rash (AE) ([3]; All Grades, 50 mg BID (n = 8)): 2 n (%)
- Cough (AE) ([3]; All Grades, Total (N = 12)): 2 n (%)
- DVT (IJ) (AE; Deep Vein Thrombosis, Internal Jugular) ([3]; All Grades, Total (N = 12)): 1 n (%)
- Diarrhea (AE) ([3]; All Grades, Total (N = 12)): 2 n (%)
- Dyspnea (AE) ([3]; All Grades, Total (N = 12)): 1 n (%)
- Fall (AE) ([3]; All Grades, Total (N = 12)): 1 n (%)
- Fatigue (AE) ([3]; All Grades, Total (N = 12)): 1 n (%)
- Headache (AE) ([3]; All Grades, Total (N = 12)): 1 n (%)
- Mild Infusion Reaction (AE) ([3]; All Grades, Total (N = 12)): 1 n (%)
- Nausea (AE) ([3]; All Grades, Total (N = 12)): 3 n (%)
- Pruritis (AE) ([3]; All Grades, Total (N = 12)): 1 n (%)
- Rash (AE) ([3]; All Grades, Total (N = 12)): 2 n (%)
- Cough (AE) [3, 7]: 0 n (%)
- DVT (IJ) (AE; Deep Vein Thrombosis, Internal Jugular) [3, 7]: 0 n (%)
- Dyspnea (AE) [3, 7]: 0 n (%)
- Fall (AE) [3, 7]: 0 n (%)
- Fatigue (AE) [3, 7]: 0 n (%)
- Headache (AE) [3, 7]: 0 n (%)
- Mild Infusion Reaction (AE) [3, 7]: 0 n (%)
- Nausea (AE) [3, 7]: 0 n (%)
- Pruritis (AE) [3, 7]: 0 n (%)
- Rash (AE) [3, 7]: 0 n (%)
- Cough (AE) [3, 8]: 0 n (%)
- DVT (IJ) (AE; Deep Vein Thrombosis, Internal Jugular) [3, 8]: 0 n (%)
- Dyspnea (AE) [3, 8]: 0 n (%)
- Fatigue (AE) [3, 8]: 0 n (%)
- Headache (AE) [3, 8]: 0 n (%)
- Mild Infusion Reaction (AE) [3, 8]: 0 n (%)
- Nausea (AE) [3, 8]: 0 n (%)
- Pruritis (AE) [3, 8]: 0 n (%)
- Rash (AE) [3, 8]: 1 n (%)
- Fall (AE) ([3]; Grade 3 or 4, 50 mg BID (n = 8), not related to study treatment): 1 n (%)
- Cough (AE) ([3]; Grade 3 or 4, Total (N = 12)): 0 n (%)
- DVT (IJ) (AE; Deep Vein Thrombosis, Internal Jugular) ([3]; Grade 3 or 4, Total (N = 12)): 0 n (%)
- Dyspnea (AE) ([3]; Grade 3 or 4, Total (N = 12)): 0 n (%)
- Fall (AE) ([3]; Grade 3 or 4, Total (N = 12)): 1 n (%)
- Fatigue (AE) ([3]; Grade 3 or 4, Total (N = 12)): 0 n (%)
- Headache (AE) ([3]; Grade 3 or 4, Total (N = 12)): 0 n (%)
- Mild Infusion Reaction (AE) ([3]; Grade 3 or 4, Total (N = 12)): 0 n (%)
- Nausea (AE) ([3]; Grade 3 or 4, Total (N = 12)): 0 n (%)
- Pruritis (AE) ([3]; Grade 3 or 4, Total (N = 12)): 0 n (%)
- Rash (AE) ([3]; Grade 3 or 4, Total (N = 12)): 1 n (%)
